Laboratory results taken from US20250177383A1, “DI-CYCLOPROPYL BASED IL-17A MODULATORS AND USES THEREOF” (DICE ALPHA, INC., priority 2022, published 2025).

target: T1, IL-17A/F (Homo sapiens, UniProt Q16552+Q96PD4); assay: IL-17A/F HEK-Blue Cell Assay; format: cell-based; settings: HEK-Blue IL-17 reporter cells, IL-17A/F stimulation, 20 hours, SEAP readout; read-out: IL17AF HEK Blue pIC50 (converted)
T1 sequence (Q16552 24-155): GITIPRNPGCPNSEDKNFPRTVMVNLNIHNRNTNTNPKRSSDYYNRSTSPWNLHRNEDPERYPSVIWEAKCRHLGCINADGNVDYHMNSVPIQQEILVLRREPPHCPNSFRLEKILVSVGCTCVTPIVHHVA
T1 sequence (Q96PD4 31-163): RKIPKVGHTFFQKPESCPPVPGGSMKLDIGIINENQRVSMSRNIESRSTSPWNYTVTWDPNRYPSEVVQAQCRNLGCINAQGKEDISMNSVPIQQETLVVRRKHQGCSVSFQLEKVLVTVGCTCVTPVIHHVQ

SMILES	IC50 [µM]
CCn1nccc1C(=O)N[C@H](C(=O)Nc1ccc([C@H](C)[C@@H](NC(=O)COC)C(=O)N2CCN(C)CC2)cc1F)C(C1CC1)C1CC1 [Compound 215]	0.01 to 0.1
CCn1nccc1C(=O)N[C@H](C(=O)Nc1ccc([C@H](C)[C@@H](NC(=O)COC)C(=O)N2CCN(C)C(CF)C2)cc1F)C(C1CC1)C1CC1 (single isomer, unassigned) [Compound 298]	0.01 to 0.1
CCC(=O)N[C@@H](C(=O)N1CCN(C)[C@H](C)C1)[C@@H](C)c1ccc(NC(=O)[C@@H](NC(=O)C2(F)CC2)C(C2CC2)C2CC2)c(F)c1 [Compound 245]	0.1 to 10
CCn1nccc1C(=O)N[C@H](C(=O)Nc1ccc([C@H](C)[C@@H](NC(=O)COC)C(=O)N2CCN(C)[C@H](C)C2)cc1F)C(C1CC1)C1CC1 [Compound 207]	0.01 to 0.1
CCC(=O)N[C@@H](C(=O)N1CCN(C)[C@H](C)C1)[C@@H](C)c1ccc(NC(=O)[C@@H](NC(=O)c2ccnn2CC)C(C2CC2)C2CC2)c(F)c1 [Compound 209]	0.01 to 0.1

tested on: not listed separately; assay: Rat pharmacokinetics, PO; format: in vivo; settings: male rat, PO 5 mg/kg oral gavage, plasma, Linear/log trapezoidal; read-out: Rat PO AUC0-t
Protocol: Formulations for PO. An appropriate amount of the test article is weighed and mixed with the appropriate volume of vehicle to get a clear solution or a uniform suspension, vortexing or sonication in water bath may used. Animals are dosed within four hours after the formulation is prepared.
Formulation samples are removed from each of the formulation solutions or suspensions, transferred into 1.5 mL of polypropylene microcentrifuge tubes and run dose validated by LC/UV or LC-MS/MS.
Dose administration. For PO dosing, the dose formulation is administered via oral gavage.
Blood Collection. Each blood collection (about 0.2 mL per time point) is performed from carotid artery cannula (CAC) of each animal into a pre-chilled commercial EDTA-K2 tubes as anti-coagulant, then placed on wet ice until centrifugation. Blood samples are processed for plasma by centrifugation at approximately 4° C., 3,200 g for 10 min. Plasma is collected respectively and a certain amount of plasma from rat is transferred into pre-labeled 96 well plate or polypropylene tubes, quick frozen over dry ice and kept at −60° C. or lower until LC-MS/MS analysis. After terminal collection, all plasmas are stored at approximately −80° C. freezer until final analysis.
Plasma concentration versus time data are plotted in graph and analyzed by non-compartmental approaches using the Phoenix WinNonlin 6.3 software program. Trapezoids: Before TMax (Linear); After Tmax (Log). Partial Area Interpolations: Before TMax (Linear); After Tmax (Log).

SMILES	AUC(0-t) [ng·h/mL]
CCn1nccc1C(=O)N[C@H](C(=O)Nc1ccc([C@H](C)[C@@H](NC(=O)COC)C(=O)N2CCN(C)CC2)cc1F)C(C1CC1)C1CC1 [Compound 215]	> 1000
CCn1nccc1C(=O)N[C@H](C(=O)Nc1ccc([C@H](C)[C@@H](NC(=O)COC)C(=O)N2CCN(C)C(CF)C2)cc1F)C(C1CC1)C1CC1 (single isomer, unassigned) [Compound 298]	> 1000
CCC(=O)N[C@@H](C(=O)N1CCN(C)[C@H](C)C1)[C@@H](C)c1ccc(NC(=O)[C@@H](NC(=O)C2(F)CC2)C(C2CC2)C2CC2)c(F)c1 [Compound 245]	> 1000
CCn1nccc1C(=O)N[C@H](C(=O)Nc1ccc([C@H](C)[C@@H](NC(=O)COC)C(=O)N2CCN(C)[C@H](C)C2)cc1F)C(C1CC1)C1CC1 [Compound 207]	> 1000
CCC(=O)N[C@@H](C(=O)N1CCN(C)[C@H](C)C1)[C@@H](C)c1ccc(NC(=O)[C@@H](NC(=O)c2ccnn2CC)C(C2CC2)C2CC2)c(F)c1 [Compound 209]	500 to 1000

target: T2, IL-17A/A (Homo sapiens, UniProt Q16552); assay: IL-17A/A HEK-Blue Cell Assay; format: cell-based; settings: HEK-Blue IL-17 reporter cells, IL-17A/A stimulation, 20 hours, SEAP readout; read-out: IL17 AA HEK-5 pIC50 (converted)
T2 sequence (Q16552 24-155): T1 sequence (Q16552 24-155)
Procedure, shortened: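 Cells co-expressing IL-17RA, IL-17RC and Act1 received titrated compound, top final 10 uM in 0.1% DMSO, immediately before IL-17A/A stimulation.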

SMILES	IC50 [µM]
CCn1nccc1C(=O)N[C@H](C(=O)Nc1ccc([C@H](C)[C@@H](NC(=O)COC)C(=O)N2CCN(C)CC2)cc1F)C(C1CC1)C1CC1 [Compound 215]	0.01 to 0.1
CCn1nccc1C(=O)N[C@H](C(=O)Nc1ccc([C@H](C)[C@@H](NC(=O)COC)C(=O)N2CCN(C)C(CF)C2)cc1F)C(C1CC1)C1CC1 (single isomer, unassigned) [Compound 298]	< 0.01
CCC(=O)N[C@@H](C(=O)N1CCN(C)[C@H](C)C1)[C@@H](C)c1ccc(NC(=O)[C@@H](NC(=O)C2(F)CC2)C(C2CC2)C2CC2)c(F)c1 [Compound 245]	0.01 to 0.1
CCn1nccc1C(=O)N[C@H](C(=O)Nc1ccc([C@H](C)[C@@H](NC(=O)COC)C(=O)N2CCN(C)[C@H](C)C2)cc1F)C(C1CC1)C1CC1 [Compound 207]	< 0.01
CCC(=O)N[C@@H](C(=O)N1CCN(C)[C@H](C)C1)[C@@H](C)c1ccc(NC(=O)[C@@H](NC(=O)c2ccnn2CC)C(C2CC2)C2CC2)c(F)c1 [Compound 209]	< 0.01

tested on: not listed separately; assay: Microsomal stability, human liver microsomes; format: in vitro ADME; settings: human liver microsomes 0.5 mg protein/mL, 1 μM test compound, NADPH, 37° C., 60 min; read-out: HLM Clint
Protocol: (§1) Test compound and control working solution preparation. 5 μL of a compound and control stock solution (10 mM in dimethyl sulfoxide (DMSO)) were diluted with 495 μL of acetonitrile (ACN).
(§2) NADPH cofactor preparation. The appropriate amount of NADPH powder was weighed and diluted into a 10 mM MgCl2 solution (working solution concentration: 10 mM; final concentration in reaction system: 1 mM). Materials: NADPH powder: β-Nicotinamide adenine dinucleotide phosphate reduced form, tetrasodium salt; NADPHA4Na (Vendor: Chem-Impex International, Cat. No. 00616).
(§3) Liver Microsome Preparation. The appropriate concentrations of microsome working solutions were prepared in 100 mM potassium phosphate buffer. Materials: Human Liver Microsomes (HLM) Cat No. 452117 and Lot No. 38295 (Corning); SD Rat Liver Microsomes (RLM) Cat No. R1000 and Lot No. 1910100 (Xenotech).
(§4) Stop solution preparation. Cold (4° C.) acetonitrile (ACN) containing 200 ng/mL tolbutamide and 200 ng/mL labetalol as internal standards (IS) were used as the stop solution.
(§5) Assay Procedure. Empty incubation plates (T60 and NCF60) were warmed for 10 mins prior to use. Liver microsomes were diluted to 0.56 mg/mL in 100 mM phosphate buffer. 445 uL microsome working solutions (0.56 mg/mL) were transferred into pre-warmed ‘Incubation’ plates T60 and NCF60, Then ‘Incubation’ plates T60 and NCF60 were pre-incubated for 10 min at 37° C. with constant shaking. 54 μL liver microsomes were transferred to the blank plate, then 6 μL NAPDH cofactor were added to the blank plate, followed by the addition 180 μL quenching solution to the blank plate. 5 μL compound working solution (100 μM) were added into ‘incubation’ plates (T60 and NCF60) containing microsomes and mixed thoroughly 3 times. To the NCF60 plate 50 μL of buffer were added and mixed 3 times thoroughly. Start timing; plate was incubated at 37° C. for 60 min while shaking. In ‘Quenching’ plate TO, were added 180 μL quenching solution and 6 μL NAPDH cofactor. Plate is chilled to prevent evaporation. The T60 plate, was mixed 3 times thoroughly, and immediately 54 μL of the mixture was removed for the 0-min time point to ‘Quenching’ plate. Then 44 μL NAPDH cofactor was added to the incubation plate (T60). Start timing; plate was incubated at 37° C. for 60 min while shaking. Final concentrations of each component in the incubation media: Microsome (0.5 mg protein/mL); Test compound (1 μM); control compound ([…]); ACN (0.99%); and DMSO (0.01%). At 5, 15, 30, 45, and 60 min, 180 μL quenching solution was added to ‘Quenching’ plates, mixed once, and serially transferred 60 μL of sample from T60 plate per time point to ‘Quenching’ plates. For the NCF60 plate, mix once and 60 μL of sample was transferred from the NCF60 incubation to ‘Quenching’ plate containing quenching solution at the 60-min time point (Start time 1:00:00 and End Time 0:00:00).
(§6) All sampling plates were shaken for 10 min, then centrifuged at 4000 rpm for 20 minutes at 4° C. 80 μL of supernatant were transferred into 240 μL HPLC water, and mixed by plate shaker for 10 min. Each bioanalysis plate was sealed and shaken for 10 minutes prior to LC-MS/MS analysis.

SMILES	microsomal CLint at 1 μM [µL/min/mg]
CCn1nccc1C(=O)N[C@H](C(=O)Nc1ccc([C@H](C)[C@@H](NC(=O)COC)C(=O)N2CCN(C)CC2)cc1F)C(C1CC1)C1CC1 [Compound 215]	50 to 150
CCn1nccc1C(=O)N[C@H](C(=O)Nc1ccc([C@H](C)[C@@H](NC(=O)COC)C(=O)N2CCN(C)C(CF)C2)cc1F)C(C1CC1)C1CC1 (single isomer, unassigned) [Compound 298]	< 50
CCC(=O)N[C@@H](C(=O)N1CCN(C)[C@H](C)C1)[C@@H](C)c1ccc(NC(=O)[C@@H](NC(=O)C2(F)CC2)C(C2CC2)C2CC2)c(F)c1 [Compound 245]	< 50
CCn1nccc1C(=O)N[C@H](C(=O)Nc1ccc([C@H](C)[C@@H](NC(=O)COC)C(=O)N2CCN(C)[C@H](C)C2)cc1F)C(C1CC1)C1CC1 [Compound 207]	50 to 150
CCC(=O)N[C@@H](C(=O)N1CCN(C)[C@H](C)C1)[C@@H](C)c1ccc(NC(=O)[C@@H](NC(=O)c2ccnn2CC)C(C2CC2)C2CC2)c(F)c1 [Compound 209]	50 to 150

tested on: not listed separately; assay: Microsomal stability, rat liver microsomes; format: in vitro ADME; settings: SD rat liver microsomes 0.5 mg protein/mL, 1 μM test compound, NADPH, 37° C., 60 min; read-out: RLM Clint
Protocol: as §1, §2, §3, §4, §5, §6

SMILES	microsomal CLint at 1 μM [µL/min/mg]
CCn1nccc1C(=O)N[C@H](C(=O)Nc1ccc([C@H](C)[C@@H](NC(=O)COC)C(=O)N2CCN(C)CC2)cc1F)C(C1CC1)C1CC1 [Compound 215]	< 9.6
CCn1nccc1C(=O)N[C@H](C(=O)Nc1ccc([C@H](C)[C@@H](NC(=O)COC)C(=O)N2CCN(C)C(CF)C2)cc1F)C(C1CC1)C1CC1 (single isomer, unassigned) [Compound 298]	< 9.6
CCC(=O)N[C@@H](C(=O)N1CCN(C)[C@H](C)C1)[C@@H](C)c1ccc(NC(=O)[C@@H](NC(=O)C2(F)CC2)C(C2CC2)C2CC2)c(F)c1 [Compound 245]	< 9.6
CCn1nccc1C(=O)N[C@H](C(=O)Nc1ccc([C@H](C)[C@@H](NC(=O)COC)C(=O)N2CCN(C)[C@H](C)C2)cc1F)C(C1CC1)C1CC1 [Compound 207]	< 9.6
CCC(=O)N[C@@H](C(=O)N1CCN(C)[C@H](C)C1)[C@@H](C)c1ccc(NC(=O)[C@@H](NC(=O)c2ccnn2CC)C(C2CC2)C2CC2)c(F)c1 [Compound 209]	< 9.6
